# Measured values as given in US9782415B2, “Substituted pyrazolo[1,5-a]pyrimidine compounds as Trk kinase inhibitors” (Array BioPharma, Inc., priority 2009, dated 2017).
# Read-outs that look alike come from different tables or passages of the source.
# How the values were obtained:
# Format in all cases: biochemical
# Human Jak2 kinase domain = Human Jak2 kinase domain (Homo sapiens (Human), UniProt O60674); test: Jak2 Inhibition Assay (Omnia kinase assay)
# Excerpt: The assays described in Examples C, D, E and F for the determination of JAK1, JAK2, JAK3 and Tyk2 kinase activity, respectively, utilized the Omnia® Kinase fluorescence peptide substrate-based technology (Invitrogen). The specific components of the assay mixture are described in Examples C, D and E. […] Two-μL aliquots of these were transferred to a fresh plate for a ten-fold intermediate dilution with assay buffer. […] Human Jak2 kinase domain comprising amino acids 808-1132 was purchased from Invitrogen Corporation, Carlsbad, Calif.
# [1] = biological target: histidine-tagged recombinant human TrkA, cytoplasmic domain (Homo sapiens (Human), UniProt P04629); test: TrkA ELISA Assay; conditions: Table 1, 500 μM ATP, read-out: TrkA Enzyme IC50
# Protocol: An enzyme-linked immunosorbant assay (ELISA) was used to assess TrkA kinase activity in the presence of inhibitors. […] The assay buffer consisted of 25 mM MOPS pH 7.5, 0.005% (v/v) Triton X-100 and 5 mM MgCl2. The reaction mixture was removed from the plate by washing with PBS containing 0.1% (v/v) Tween 20. […] After the addition of 1M phosphoric acid, the chromogenic substrate color intensity was quantitated via absorbance at 450 nm.
# Human Tyk2 kinase domain = Human Tyk2 kinase domain (Homo sapiens (Human), UniProt P29597); test: Tyk2 Inhibition Assay (Omnia kinase assay); conditions: Table 2; 500 μM ATP
# Protocol: (§1) The assays described in Examples C, D, E and F for the determination of JAK1, JAK2, JAK3 and Tyk2 kinase activity, respectively, utilized the Omnia® Kinase fluorescence peptide substrate-based technology (Invitrogen). […] The reactions were therefore read at excitation 360 nm and emission was measured at 485 nm every 50 seconds for 45 minutes using a PerkinElmer EnVision Multilabel Plate Reader.
# (§2) The final buffer conditions for each of the JAK1, JAK2, JAK3 and Tyk2 assays were as follows: 25 mM HEPES, pH 7.4, 10 mM MgCl2, 0.01% Triton X-100 and 1 mM DTT.
# (§3) Compounds were prepared at 50× the final concentration in DMSO by conducting 3-fold serial dilutions from a 500-μM or 1000-μM intermediate dilution to give a 10-point dosing curve having a high dose of 10 or 20 μM. Two-μL aliquots of these were transferred to a fresh plate for a ten-fold intermediate dilution with assay buffer. Five-μL aliquots of the diluted compounds were then transferred to 20-μL of assay mixtures described in Examples C, D, E and F for a final concentration of DMSO of 2%. A standard or reference compound was typically included on each assay plate to validate that plate. For each plate, percent of control (POC) values were calculated for each well according to the following equation: […]
# (§4) IC50's were estimated from the POC's using a standard 4-parameter logistic model: […]
# [2] = biological target: GST-tagged human Jak1 kinase domain (Homo sapiens (Human), UniProt P23458); test: Jak1 Inhibition Assay (Omnia kinase assay); conditions: Table 2; 500 μM ATP
# Protocol: as §1, §2, §3, §4
# [3] = biological target: GST-tagged human Jak3 kinase domain (Homo sapiens (Human), UniProt P52333); test: Jak3 Inhibition Assay (Omnia kinase assay); conditions: Table 2; 500 μM ATP
# Protocol: as §1, §2, §3, §4
# [4] = read-out: Jak2 Enzyme % inhibition at 1000 nM, Table 1, 1000 nM test compound
# Human Jak2 kinase domain, sequence (O60674 808-1132): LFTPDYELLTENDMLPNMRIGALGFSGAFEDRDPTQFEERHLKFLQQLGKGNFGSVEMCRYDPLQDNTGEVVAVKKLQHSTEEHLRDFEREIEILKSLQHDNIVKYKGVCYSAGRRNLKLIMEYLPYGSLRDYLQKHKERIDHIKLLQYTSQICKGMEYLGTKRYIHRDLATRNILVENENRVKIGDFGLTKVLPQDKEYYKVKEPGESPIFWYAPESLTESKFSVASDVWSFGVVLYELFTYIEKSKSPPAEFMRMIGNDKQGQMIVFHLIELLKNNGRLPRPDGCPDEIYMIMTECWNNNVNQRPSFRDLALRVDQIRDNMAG
# Human Tyk2 kinase domain, sequence (P29597 886-1187): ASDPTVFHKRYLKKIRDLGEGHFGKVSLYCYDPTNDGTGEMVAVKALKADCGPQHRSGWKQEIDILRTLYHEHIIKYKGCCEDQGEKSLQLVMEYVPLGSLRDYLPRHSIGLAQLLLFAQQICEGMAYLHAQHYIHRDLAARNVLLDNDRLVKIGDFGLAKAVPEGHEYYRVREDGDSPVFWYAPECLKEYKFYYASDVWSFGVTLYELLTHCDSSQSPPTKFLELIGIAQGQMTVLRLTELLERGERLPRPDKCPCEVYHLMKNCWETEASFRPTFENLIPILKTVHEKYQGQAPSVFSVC
# GST-tagged human Jak3 kinase domain, sequence (P52333 781-1124): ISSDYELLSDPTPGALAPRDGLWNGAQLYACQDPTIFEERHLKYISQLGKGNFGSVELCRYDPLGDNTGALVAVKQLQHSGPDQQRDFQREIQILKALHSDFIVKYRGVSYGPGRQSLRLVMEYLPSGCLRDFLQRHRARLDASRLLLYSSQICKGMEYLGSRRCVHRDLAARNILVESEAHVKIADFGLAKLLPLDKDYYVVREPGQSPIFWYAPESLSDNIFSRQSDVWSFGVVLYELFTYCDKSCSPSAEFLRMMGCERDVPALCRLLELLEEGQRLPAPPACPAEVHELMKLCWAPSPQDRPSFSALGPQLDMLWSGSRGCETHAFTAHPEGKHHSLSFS
# histidine-tagged recombinant human TrkA, cytoplasmic domain, sequence (P04629 440-796): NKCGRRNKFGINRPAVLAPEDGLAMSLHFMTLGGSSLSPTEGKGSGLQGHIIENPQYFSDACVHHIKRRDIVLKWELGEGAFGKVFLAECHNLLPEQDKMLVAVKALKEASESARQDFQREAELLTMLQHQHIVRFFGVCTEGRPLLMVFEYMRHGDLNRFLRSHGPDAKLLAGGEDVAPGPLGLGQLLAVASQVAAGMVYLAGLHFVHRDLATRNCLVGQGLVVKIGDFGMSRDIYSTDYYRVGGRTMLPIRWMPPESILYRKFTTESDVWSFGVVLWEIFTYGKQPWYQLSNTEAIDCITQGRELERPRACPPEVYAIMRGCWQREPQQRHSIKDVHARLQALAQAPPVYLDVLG
# GST-tagged human Jak1 kinase domain, sequence (P23458 866-1154): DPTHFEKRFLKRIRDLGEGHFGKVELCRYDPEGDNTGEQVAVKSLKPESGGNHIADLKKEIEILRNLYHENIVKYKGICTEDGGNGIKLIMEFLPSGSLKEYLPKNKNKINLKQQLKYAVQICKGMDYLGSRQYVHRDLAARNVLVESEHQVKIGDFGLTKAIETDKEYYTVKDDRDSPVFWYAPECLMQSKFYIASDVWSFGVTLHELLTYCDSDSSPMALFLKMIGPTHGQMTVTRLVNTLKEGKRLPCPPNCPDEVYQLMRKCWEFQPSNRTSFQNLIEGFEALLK
smiles,measurement,setting,value
"Cc1ncc(F)cc1[C@H]1CCCN1c1ccn2ncc(C(=O)N[C@@H]3CCC[C@H]3O)c2n1 [Example 197, 5-((R)-2-(5-fluoro-2-methylpyridin-3-yl)pyrrolidin-1-yl)-N-((1R,2R)-2-hydroxycyclopentyl)pyrazolo[1,5-a]pyrimidine-3-carboxamide]",IC50,"Human Jak2 kinase domain; Table 1, 500 μM ATP, >1000 nM when >50% inhibition not observed at 1000 nM, read-out: Jak2 Enzyme IC50",> 1 µM
same,IC50,[1],0.0048 µM
"O=C(N[C@H]1CC[C@H](O)CC1)c1cnn2ccc(N3CCC[C@@H]3c3cncc(F)c3)nc12 [Example 99, 5-((R)-2-(5-fluoropyridin-3-yl)pyrrolidin-1-yl)-N-((trans)-4-hydroxycyclohexyl)pyrazolo[1,5-a]pyrimidine-3-carboxamide]",inhibition at 1 µM,Human Jak2 kinase domain; [4],45.8%
"O=C(N[C@@H]1C2CC[C@@H](C2)[C@@H]1CO)c1cnn2ccc(N3CCC[C@@H]3c3cncc(F)c3)nc12 [Example 138, 5-((R)-2-(5-fluoropyridin-3-yl)pyrrolidin-1-yl)-N-((2R,3S,4S)-3-(hydroxymethyl)bicyclo[2.2.1]heptan-2-yl)pyrazolo[1,5-a]pyrimidine-3-carboxamide]",inhibition at 1 µM,Human Jak2 kinase domain; read-out: Jak2 Enzyme % inhibition at 1000 nM,10%
"O=C(N[C@H]1CC[C@@H](O)CC1)c1cnn2ccc(N3CCC[C@@H]3c3cncc(F)c3)nc12 [Example 100, 5-((R)-2-(5-fluoropyridin-3-yl)pyrrolidin-1-yl)-N-((cis)-4-hydroxycyclohexyl)pyrazolo[1,5-a]pyrimidine-3-carboxamide]",inhibition at 1 µM,Human Jak2 kinase domain; [4],13.8%
"Cc1ncc(F)cc1[C@H]1CCCN1c1ccn2ncc(C(=O)N[C@H]3CC[C@H](O)CC3)c2n1 [Example 194, 5-((R)-2-(5-fluoro-2-methylpyridin-3-yl)pyrrolidin-1-yl)-N-((trans)-4-hydroxycyclohexyl)pyrazolo[1,5-a]pyrimidine-3-carboxamide]",IC50,Human Tyk2 kinase domain,> 1 µM
same,IC50,[2],> 1 µM
same,IC50,[3],> 1 µM
"COc1ncc(F)cc1[C@H]1CCCN1c1ccn2ncc(C(=O)N[C@H]3CC[C@H](O)CC3)c2n1 [Example 140, 5-((R)-2-(5-fluoro-2-methoxypyridin-3-yl)pyrrolidin-1-yl)-N-((trans)-4-hydroxycyclohexyl)pyrazolo[1,5-a]pyrimidine-3-carboxamide]",IC50,Human Tyk2 kinase domain,> 1 µM
